Measurements from patent US20240174637A1, “DEGRADERS OF GRK2 AND USES THEREOF” (Sonata Therapeutics, Inc., priority 2021, published 2024).
Structures can show the parent of a compound that is named as a salt.

Columns and labels:
GRK2 [1] = target: T1, GRK2 (Homo sapiens, UniProt P25098); assay: GRK2 Inhibition Assay (TR-FRET, Example 1); type: biochemical; settings: Table 4; Example 1 assay; read-out: Enzymatic GRK2 IC50: Av IC50 GRK2
T1 sequence (P25098 1-689): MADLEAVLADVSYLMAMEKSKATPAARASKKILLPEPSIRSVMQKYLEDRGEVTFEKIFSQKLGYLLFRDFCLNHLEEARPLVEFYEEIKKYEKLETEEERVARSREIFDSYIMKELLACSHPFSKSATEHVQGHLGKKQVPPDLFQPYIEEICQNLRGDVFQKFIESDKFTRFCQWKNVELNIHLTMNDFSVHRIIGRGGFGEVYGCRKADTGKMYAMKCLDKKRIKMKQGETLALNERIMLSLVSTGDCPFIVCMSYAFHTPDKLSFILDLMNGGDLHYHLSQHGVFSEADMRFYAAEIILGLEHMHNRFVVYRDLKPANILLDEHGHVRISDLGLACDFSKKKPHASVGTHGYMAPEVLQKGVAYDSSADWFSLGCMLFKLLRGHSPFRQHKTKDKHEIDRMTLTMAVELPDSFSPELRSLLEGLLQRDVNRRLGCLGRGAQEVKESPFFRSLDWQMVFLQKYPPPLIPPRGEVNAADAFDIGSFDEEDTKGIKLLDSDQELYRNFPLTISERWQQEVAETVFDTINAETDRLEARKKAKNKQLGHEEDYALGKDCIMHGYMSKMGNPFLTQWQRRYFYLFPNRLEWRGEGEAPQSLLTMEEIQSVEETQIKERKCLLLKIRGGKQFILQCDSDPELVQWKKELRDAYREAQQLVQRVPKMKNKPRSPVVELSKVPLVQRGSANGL
How it was run: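 GRK2 (1 nM) pre-incubated 30 min RT with compounds in HEPES/MgCl2/DTT/Tween-20/EGTA buffer, then reacted 90 min RT with 7 μM ATP and 50 nM ULight-TopoIIα substrate. Stopped with EDTA plus Eu anti-TopoIIα antibody; TR-FRET read after 60 min.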

PAXF1657 EV = assay: 7-day cellular proliferation assay (CellTiter-Glo), PAXF1657 EV; type: cell-based; settings: proliferation, read-out: GeoMean IC50 (UM) PAXF1657 EV
How it was run: (§1)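 Read-out is CellTiter-Glo luminescence after 7 days of continuous exposure, with compound re-dosed in fresh medium at day 3. Cells were seeded at 500/well and treated across 30 μM-0.0002 μM (10 points, 0.3% DMSO); baseline viability plates were read at compound addition.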

PAXF1657 KO Clone #4 = assay: 7-day cellular proliferation assay (CellTiter-Glo), PAXF1657 KO Clone #4; type: cell-based; settings: proliferation, read-out: GeoMean IC50 (uM) PAXF1657 KO Clone #4
How it was run: as §1

GRK2 [2] = target: T1, GRK2; assay: GRK2 Degradation Assay and Western Blot in PAXF1657 cells; type: cell-based; parameters: endogenous in cells; host or cells: PAXF1657; settings: for inhibition at 0.3 µM: Conc 0.3 uM; for inhibition at 0.3 µM / inhibition at 1 µM / inhibition at 3 µM: read-out: Degradation Assay - 3 point: Degradation (%); for inhibition at 1 µM: Conc 1 uM; for inhibition at 3 µM: Conc 3 uM; for DC50: PAXF1657, 24 h, read-out: Degradation Assay - Full Dose Response: IC50 (uM) [cell line: PAXF1657, time point: 24 h]
How it was run: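 PAXF1657 cells grown to 70% confluency, then treated with compounds at 0–10 μM for 6 to 24 h at 37 °C. Lysates in PBS with 1% NP40 run on SDS-PAGE. GRK2 protein detected by western blot with β-actin as loading reference, using ECL chemiluminescence.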

## C[C@@H](NC(=O)c1cccc(NCc2nnc(-c3ccncn3)n2C)c1)c1cccc(OCCCCCCOCCOCCOCCC(=O)N2CCN(c3cc4c(cc3F)C(=O)N(C3CCC(=O)NC3=O)C4=O)CC2)c1 (stereo partly drawn) [Compound D130, N-((1R)-1-(3-(6-(2-(2-(3-(4-(2-(2,6-dioxopiperidin-3-yl)-6-fluoro-1,3-dioxoisoindolin-5-yl)piperazin-1-yl)-3-oxopropoxy)ethoxy)ethoxy)hexyloxy)phenyl)ethyl)-3-((4-methyl-5-(pyrimidin-4-yl)-4H-1,2,4-triazol-3-yl)methylamino)benzamide]
GRK2 [1]
  IC50: 17.9 nM
PAXF1657 EV
  IC50: 880 nM
PAXF1657 KO Clone #4
  IC50: 24.7 µM
GRK2 [2]
  inhibition at 0.3 µM: 78.7%
  inhibition at 1 µM: 84.7%
  inhibition at 3 µM: 90.7%
  DC50: 0.29 µM

## C[C@@H](NC(=O)c1cccc(NCc2nnc(-c3ccncn3)n2C)c1)c1cccc(OCCCCCCOCCOCCOCCC(=O)N2CCN(c3ccc4c(c3)CN(C3CCC(=O)NC3=O)C4=O)CC2)c1 (stereo partly drawn) [Compound D131, N-((1R)-1-(3-(6-(2-(2-(3-(4-(2-(2,6-dioxopiperidin-3-yl)-1-oxoisoindolin-5-yl)piperazin-1-yl)-3-oxopropoxy)ethoxy)ethoxy)hexyloxy)phenyl)ethyl)-3-((4-methyl-5-(pyrimidin-4-yl)-4H-1,2,4-triazol-3-yl)methylamino)benzamide]
GRK2 [1]
  IC50: 26.6 nM
PAXF1657 EV
  IC50: 220 nM
PAXF1657 KO Clone #4
  IC50: > 30 µM
GRK2 [2]
  inhibition at 0.3 µM: 17.5%
  inhibition at 1 µM: 68.7%
  inhibition at 3 µM: 89.2%
  DC50: 0.24 µM

## C[C@@H](NC(=O)c1cccc(NCc2nnc(-c3ccncn3)n2C)c1)c1cccc(OCCCCCCOCC(=O)N2CCN(c3ccc4c(c3)CN(C3CCC(=O)NC3=O)C4=O)CC2)c1 (stereo partly drawn) [Compound D132, N-((1R)-1-(3-(6-(2-(4-(2-(2,6-dioxopiperidin-3-yl)-1-oxoisoindolin-5-yl)piperazin-1-yl)-2-oxoethoxy)hexyloxy)phenyl)ethyl)-3-((4-methyl-5-(pyrimidin-4-yl)-4H-1,2,4-triazol-3-yl)methylamino)benzamide]
GRK2 [1]
  IC50: 16.3 nM
PAXF1657 EV
  IC50: 40 nM
PAXF1657 KO Clone #4
  IC50: > 30 µM
GRK2 [2]
  inhibition at 0.3 µM: 87.4%
  inhibition at 1 µM: 92.4%
  inhibition at 3 µM: 91.5%
  DC50: 0.12 µM

## C[C@@H](NC(=O)c1cccc(NCc2nnc(-c3ccncn3)n2C)c1)c1cccc(OCCCCCCOCC(=O)N2CCN(c3cc4c(cc3F)C(=O)N(C3CCC(=O)NC3=O)C4=O)CC2)c1 (stereo partly drawn) [Compound D133, N-((1R)-1-(3-(6-(2-(4-(2-(2,6-dioxopiperidin-3-yl)-6-fluoro-1,3-dioxoisoindolin-5-yl)piperazin-1-yl)-2-oxoethoxy)hexyloxy)phenyl)ethyl)-3-((4-methyl-5-(pyrimidin-4-yl)-4H-1,2,4-triazol-3-yl)methylamino)benzamide]
GRK2 [1]
  IC50: 9.05 nM
PAXF1657 EV
  IC50: 710 nM
PAXF1657 KO Clone #4
  IC50: > 30 µM
GRK2 [2]
  inhibition at 0.3 µM: 57.7%
  inhibition at 1 µM: 82.4%
  inhibition at 3 µM: 86.7%

## C[C@@H](NC(=O)c1cccc(NCc2nnc(-c3ccncn3)n2C)c1)c1ccc(OCCCCCCOCCOCCOCCC(=O)N2CCN(c3cc4c(cc3F)C(=O)N(C3CCC(=O)NC3=O)C4=O)CC2)cc1 (stereo partly drawn) [Compound D137, N-((1R)-1-(4-(6-(2-(2-(3-(4-(2-(2,6-dioxopiperidin-3-yl)-6-fluoro-1,3-dioxoisoindolin-5-yl)piperazin-1-yl)-3-oxopropoxy)ethoxy)ethoxy)hexyloxy)phenyl)ethyl)-3-((4-methyl-5-(pyrimidin-4-yl)-4H-1,2,4-triazol-3-yl)methylamino)benzamide]
GRK2 [1]
  IC50: 12.5 nM
PAXF1657 EV
  IC50: 140 nM
PAXF1657 KO Clone #4
  IC50: 22.8 µM
GRK2 [2]
  inhibition at 0.3 µM: 71.2%
  inhibition at 1 µM: 79.2%
  inhibition at 3 µM: 80.4%

## C[C@@H](NC(=O)c1cccc(NCc2nnc(-c3ccncn3)n2C)c1)c1cccc(OCCCCCCOCCOCC(=O)N2CCN(c3ccc4c(c3)CN(C3CCC(=O)NC3=O)C4=O)CC2)c1 (stereo partly drawn) [Compound D138, N-((1R)-1-(3-(6-(2-(2-(4-(2-(2,6-dioxopiperidin-3-yl)-1-oxoisoindolin-5-yl)piperazin-1-yl)-2-oxoethoxy)ethoxy)hexyloxy)phenyl)ethyl)-3-((4-methyl-5-(pyrimidin-4-yl)-4H-1,2,4-triazol-3-yl)methylamino)benzamide hydrochloride]
GRK2 [1]
  IC50: 20.2 nM
PAXF1657 EV
  IC50: 660 nM
PAXF1657 KO Clone #4
  IC50: > 30 µM
GRK2 [2]
  inhibition at 0.3 µM: 85%
  inhibition at 1 µM: 92%
  inhibition at 3 µM: 95%
  DC50: 0.137 µM

## C[C@@H](NC(=O)c1cccc(NCc2nnc(-c3ccncn3)n2C)c1)c1cccc(OCCCCCCOCCOCC(=O)N2CCN(c3cc4c(cc3F)C(=O)N(C3CCC(=O)NC3=O)C4=O)CC2)c1 (stereo partly drawn) [Compound D139, N-((1R)-1-(3-(6-(2-(2-(4-(2-(2,6-dioxopiperidin-3-yl)-6-fluoro-1,3-dioxoisoindolin-5-yl)piperazin-1-yl)-2-oxoethoxy)ethoxy)hexyloxy)phenyl)ethyl)-3-((4-methyl-5-(pyrimidin-4-yl)-4H-1,2,4-triazol-3-yl)methylamino)benzamide]
GRK2 [1]
  IC50: 13.6 nM
PAXF1657 EV
  IC50: 200 nM
PAXF1657 KO Clone #4
  IC50: 26.6 µM
GRK2 [2]
  inhibition at 0.3 µM: 86%
  inhibition at 1 µM: 92%
  inhibition at 3 µM: 95%
  DC50: 0.23 µM

## C[C@@H](NC(=O)c1cccc(NCc2nnc(-c3ccncn3)n2C)c1)c1cccc(OCCCCCCOCCOCCN2CCN(c3cc4c(cc3F)C(=O)N(C3CCC(=O)NC3=O)C4=O)CC2)c1 (stereo partly drawn) [Compound D140, N-((1R)-1-(3-(6-(2-(2-(4-(2-(2,6-dioxopiperidin-3-yl)-6-fluoro-1,3-dioxoisoindolin-5-yl)piperazin-1-yl)ethoxy)ethoxy)hexyloxy)phenyl)ethyl)-3-((4-methyl-5-(pyrimidin-4-yl)-4H-1,2,4-triazol-3-yl)methylamino)benzamide]
GRK2 [1]
  IC50: 20.9 nM
PAXF1657 EV
  IC50: 780 nM
PAXF1657 KO Clone #4
  IC50: 19.9 µM
GRK2 [2]
  inhibition at 0.3 µM: 88%
  inhibition at 1 µM: 92%
  inhibition at 3 µM: 93%
  DC50: 0.12 µM

## C[C@@H](NC(=O)c1cccc(NCc2nnc(-c3ccncn3)n2C)c1)c1cccc(OCCCCCCOCCOCCNc2ccc3c(c2)CN(C2CCC(=O)NC2=O)C3=O)c1 (stereo partly drawn) [Compound D141, N-((1R)-1-(3-(6-(2-(2-(2-(2,6-dioxopiperidin-3-yl)-1-oxoisoindolin-5-ylamino)ethoxy)ethoxy)hexyloxy)phenyl)ethyl)-3-((4-methyl-5-(pyrimidin-4-yl)-4H-1,2,4-triazol-3-yl)methylamino)benzamide]
GRK2 [1]
  IC50: 19.5 nM
PAXF1657 EV
  IC50: 170 nM
PAXF1657 KO Clone #4
  IC50: 1.66 µM
GRK2 [2]
  inhibition at 0.3 µM: 89%
  inhibition at 1 µM: 88%
  inhibition at 3 µM: 67%
  DC50: 8.71 µM

## C[C@@H](NC(=O)c1cccc(NCc2nnc(-c3ccncn3)n2C)c1)c1cccc(OCCCCCCOCCOCCNc2cccc3c2CN(C2CCC(=O)NC2=O)C3=O)c1 (some centres unmarked) [Compound D143]
GRK2 [1]
  IC50: 10.4 nM
PAXF1657 EV
  IC50: 110 nM
PAXF1657 KO Clone #4
  IC50: 5.32 µM
GRK2 [2]
  inhibition at 0.3 µM: 88%
  inhibition at 1 µM: 82%
  inhibition at 3 µM: 83%
  DC50: 0.11 µM

## C[C@@H](NC(=O)c1cccc(NCc2nnc(-c3ccncn3)n2C)c1)c1ccc(OCCCCCCOCCOCCOCCCCCC(=O)Nc2cccc3c2CN(C2CCC(=O)NC2=O)C3=O)cc1 (stereo partly drawn) [Compound D147, N-((1R)-1-(4-(6-(2-(2-(6-(2-(2,6-dioxopiperidin-3-yl)-1-oxoisoindolin-4-ylamino)-6-oxohexyloxy)ethoxy)ethoxy)hexyloxy)phenyl)ethyl)-3-((4-methyl-5-(pyrimidin-4-yl)-4H-1,2,4-triazol-3-yl)methylamino)benzamide]
GRK2 [1]
  IC50: 10.1 nM
PAXF1657 EV
  IC50: 110 nM
PAXF1657 KO Clone #4
  IC50: > 30 µM
GRK2 [2]
  inhibition at 0.3 µM: 73.8%
  inhibition at 1 µM: 81.6%
  inhibition at 3 µM: 83.1%
